Measured values published in patent US12115180B2 (Board of Supervisors of Louisiana State University and …, priority 2020, dated 2024).

What was measured:
p53 = assay: Western blot of p53 expression in NRCs; assay type: cell-based, Sprague Dawley rat; conditions: 10 μM, 24 h
Procedure: (§1) Cell Lines and Maintenance. Primary Neonatal Rat Cardiomyocyte Culture. The inventors isolated neonatal rat cardiomyocytes (NRCs) from the ventricles of 1-2 day old Sprague Dawley rat pups as described previously. Briefly, ventricular tissues excised from rat pups were digested with collagenase at 4° C. overnight with subsequent digestion in trypsin. Next, cells were preplated to remove cardiac fibroblasts, followed by plating of isolated cardiomyocytes at 1.5×10^6 cells per 10 cm^2 plate in αMEM containing 10% fetal bovine serum (FBS) (Gibco) and 1% antibiotic-antimycotic (Gibco) media. After 24 h, NRCs were maintained in Dulbecco's modified Eagle's medium (DMEM) (Gibco) containing 2% FBS and 1% antibiotic-antimycotic and subjected to different treatments, as described previously. All cell culture treatments were repeated in three independent experiments.
Protein Extraction and Western Blot Analyses. NRCs were washed with PBS and lysed with CelLytic M (Sigma-Aldrich) lysis buffer containing a complete protease inhibitor cocktail (Roche®). […] The protein concentration of the soluble cardiomyocyte lysates was measured using the modified Bradford reagent relative to a BSA standard curve (Bio-Rad®) in a 1 mL cuvette on a DS-11 FX+ spectrophotometer (DeNovix®, Wilmington, DE). […]

[1] = test system: neonatal rat cardiomyocytes (NRCs); assay: Lactate dehydrogenase release assay for cardiac myocytes; assay type: cell-based, Sprague Dawley rat; conditions: 5 μM, 10 μM, and 25 μM; 24 h
Procedure: as §1
Biochemical Assays. Lactate Dehydrogenase Release Assay for Cardiac Myocytes. Following treatments, culture media were collected and cleared by centrifugation at 5000 g for 10 min. Lactate dehydrogenase (LDH) release into culture media was measured using a cytotoxicity detection kit (Roche®) as per the manufacturer's instructions. Color development was measured using a microplate absorbance reader at an absorbance of 492 nm (Bio-Rad®).

[2] = pKa and protonation of the side-chain amines; assay type: physicochemical

Compound	p53 protein expression (p53)	LDH release (cell death) [1]	pKa [2]	fraction protonated ([2]; pH 4.5) [%]	fraction protonated ([2]; pH 5.5) [%]
COc1cccc2c1C(=O)c1c(O)c3c(c(O)c1C2=O)C[C@@](O)(C(=O)CO)C[C@@H]3O[C@H]1C[C@H](N)[C@H](O)[C@H](C)O1 [con-DOX, doxorubicin]	increased p53 expression	dose-dependent increase in cell death			
NCCN1CCCC1 [PY, 2-pyrrolidine-1-yl-ethyl-amine]			5.4	89	44
CCCCN(CCN)CCCC			4	24	3
